Read-outs that look alike come from different tables or passages of the source.
Columns and labels:
KM12 cells = experiment: KM12 cell viability (CellTiter-Glo); type: cell-based; conditions: Homo sapiens, 72 h, KM12 cell viability, CellTiter-Glo, read-out: IC50
Protocol: KM12 or H358 cells were treated with 1000 nM CPD-053 following an 8-point 3-fold serial dilution for 3 days.
KM12 cells seeded in 96-well plates were treated with heterobifunctional compounds following a 11-point 3-fold serial dilution for 3 days.
KM12, H358, HEL, SU-DHL-1 and other cells were cultured at 37° C. with 5% CO2 in RPMI 1640 Medium supplemented with 10% fetal bovine serum. Cells were authenticated using the short tandem repeat (STR) assays. Mycoplasma test results were negative. Stable cell lines were established by lentivirus transduction, selected and maintained in medium containing 1 μg/mL puromycin (Beyotime Biotechnology).
Cells were seeded at a density of 5000 cells per well in 96-well assay plates and treated with test compounds following a 12-point 2-fold serial dilution or a 8-point 3-fold dilution, or 11-point 3-fold serial dilution. Three days later, cell viability was determined using the CellTiter-Glo assay kit (Promega) according to the manufacturer's instructions. The dose-response curves were determined and IC50 values were calculated using the GraphPad Prism software following a nonlinear regression (least squares fit) method.

TPM3-TRKA fusion protein = target: T1, TPM3-TRKA fusion protein (Homo sapiens, UniProt P04629); experiment: TPM3-TRKA fusion protein levels in KM12 cells (Western blot); type: cell-based; conditions: 16 h; TPM3-TRKA degradation in KM12 cells at 10 nM compound, category of percentage degradation; read-out: Degradation (at 10 nM)
T1 construct: The resulted chimeric proteins always retain the kinase domain of TRK proteins; TPM3 (fusion partner, N-terminal part of tropomyosin alpha-3, P06753); endogenous in cells; host or cells: KM12 colon cancer cells; the other entry of the earlier key: TPM3 (P06753, Tropomyosin alpha-3 chain)
T1 sequence (P04629 with tags, fused parts or gaps): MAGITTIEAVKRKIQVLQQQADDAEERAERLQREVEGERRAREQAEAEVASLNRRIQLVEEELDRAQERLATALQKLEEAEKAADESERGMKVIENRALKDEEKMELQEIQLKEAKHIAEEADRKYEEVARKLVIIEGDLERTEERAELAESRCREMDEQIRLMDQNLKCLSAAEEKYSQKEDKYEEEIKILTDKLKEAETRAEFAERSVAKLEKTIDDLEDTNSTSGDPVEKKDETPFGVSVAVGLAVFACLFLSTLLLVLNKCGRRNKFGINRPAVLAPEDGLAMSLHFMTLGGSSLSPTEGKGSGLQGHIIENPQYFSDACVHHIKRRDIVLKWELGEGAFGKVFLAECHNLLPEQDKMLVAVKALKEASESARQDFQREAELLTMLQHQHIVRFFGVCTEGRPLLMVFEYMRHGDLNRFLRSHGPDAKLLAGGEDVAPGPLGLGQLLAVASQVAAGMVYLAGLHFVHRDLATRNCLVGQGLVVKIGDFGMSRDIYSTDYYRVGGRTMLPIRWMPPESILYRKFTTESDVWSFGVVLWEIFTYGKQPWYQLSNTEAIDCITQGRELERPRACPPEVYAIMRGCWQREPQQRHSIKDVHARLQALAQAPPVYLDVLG
Summary of the method: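 TPM3-TRKA levels were assessed by Western blot with chemiluminescent detection and band densitometry, after SDS-PAGE of BCA-normalized RIPA lysates. Before lysis, KM12 cells received DMSO, compounds or matched control compounds at concentrations including 0.1, 1, 10 and 100 nM and 0.4–30 nM. Exposures lasted 4 h, 8–16 h or 16 h.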

[1] = 11-point 3-fold serial dilution, 3 days

SMILES	percent degradation of TPM3-TRKA protein at 0.01 µM (TPM3-TRKA fusion protein) [%]	other results
COc1ccc(COc2ccc(Cn3c(N)nc4cc(-c5cnn(CC(=O)NCC(=O)N[C@H](C(=O)N6C[C@H](O)C[C@H]6C(=O)NCc6ccc(-c7scnc7C)cc6)C(C)(C)C)c5)cnc43)cc2OC)cc1 [CPD-507]		IC50 (KM12 cells; [1]): 1520 nM
COc1ccc(COc2ccc(Cn3c(N)nc4cc(-c5cnn(CC(=O)NCCOCCOCCOCCC(=O)N[C@H](C(=O)N6C[C@H](O)C[C@H]6C(=O)NCc6ccc(-c7scnc7C)cc6)C(C)(C)C)c5)cnc43)cc2OC)cc1 [CPD-514, (2S,4R)-1-((S)-1-(4-(2-amino-3-(3-methoxy-4-((4-methoxybenzyl)oxy)benzyl)-3H-imidazo[4,5-b]pyridin-6-yl)-1H-pyrazol-1-yl)-17-(tert-butyl)-2,15-dioxo-6,9,12-trioxa-3,16-diazaoctadecan-18-oyl)-4-hydroxy-N-(4-(4-methylthiazol-5-yl)benzyl)pyrrolidine-2-carboxamide]		IC50 (KM12 cells; [1]): 174 nM
NC(=O)C1CCN(c2cc(CN3CCN(C(=O)CCOCCOCCNc4cccc5c4C(=O)N(C4CCC(=O)NC4=O)C5=O)CC3)ccc2NC(=O)c2coc(N3CCOCC3)n2)CC1 (stereo not shown) [CPD-486, N-(2-(4-carbamoylpiperidin-1-yl)-4-((4-(3-(2-(2-((2-(2,6-dioxopiperidin-3-yl)-1,3-dioxoisoindolin-4-yl)amino)ethoxy)ethoxy)propanoyl)piperazin-1-yl)methyl)phenyl)-2-morpholinooxazole-4-carboxamide]		IC50 (KM12 cells; [1]): 230 nM
Cn1c(=O)n(C2CCC(=O)NC2=O)c2cccc(OCCCN3CCN(c4ccc(C(=O)Nc5n[nH]c6ccc(Cc7cc(F)cc(F)c7)cc56)c(NC5CCOCC5)c4)CC3)c21 (stereo not shown) [TR-312, N-(5-(3,5-Difluorobenzyl)-1H-indazol-3-yl)-4-(4-(3-((1-(2,6-dioxopiperidin-3-yl)-3-methyl-2-oxo-2,3-dihydro-1H-benzo[d]imidazol-4-yl)oxy)propyl)piperazin-1-yl)-2-((tetrahydro-2/˜pyran-4-yl)amino)benzamide]		IC50 (KM12 cells; three days treatment): 107 nM
O=C(CN1CCN(c2ccc(C(=O)Nc3n[nH]c4ccc(Cc5cc(F)cc(F)c5)cc34)c(NC3CCOCC3)c2)CC1)NCCOCCOCCOCCOCCOCCNc1ccc2c(c1)C(=O)N(C1CCC(=O)NC1=O)C2=O (stereo not shown) [TR-166, N-(5-(3,5-Difluorobenzyl)-1H-indazol-3-yl)-4-(4-(20-((2-(2,6-dioxopiperidin-3-yl)-1,3-dioxoisoindolin-5-yl)amino)-2-oxo-6,9,12,15,18-pentaoxa-3-azaicosyl)piperazin-1-yl)-2-((tetrahydro-28-pyran-4-yl)amino)benzamide]	> 80	
O=C(CN1CCN(c2ccc(C(=O)Nc3n[nH]c4ccc(Cc5cc(F)cc(F)c5)cc34)c(NC3CCOCC3)c2)CC1)NCCOCCNc1ccc2c(c1)C(=O)N(C1CCC(=O)NC1=O)C2=O (stereo not shown) [TR-161, N-(5-(3,5-Difluorobenzyl)-1H-indazol-3-yl)-4-(4-(2-((2-(2-((2-(2,6-dioxopiperidin-3-yl)-1,3-dioxoisoindolin-5-yl)amino)ethoxy)ethyl)amino)-2-oxoethyl)piperazin-1-yl)-2-((tetrahydro-2H-pyran-4-yl)amino)benzamide]	> 80	
Cc1ncsc1-c1ccc(CNC(=O)[C@@H]2C[C@@H](O)CN2C(=O)[C@@H](NC(=O)CCOCCC(=O)N2CCN(c3ccc(C(=O)Nc4n[nH]c5ccc(Cc6cc(F)cc(F)c6)cc45)c(NC4CCOCC4)c3)CC2)C(C)(C)C)cc1 [CPD-048, (28,4R)-1-((S)-2-(3-(3-(4-(4-((5-(3,5-Difluorobenzyl)-1H-indazol-3-yl)carbamoyl)-3-((tetrahydro-2H-pyran-4-yl)amino)phenyl)piperazin-1-yl)-3-oxopropoxy)propanamido)-3,3-dimethylbutanoyl)-4-hydroxy-N-(4-(4-methylthiazol-5-yl)benzyl)pyrrolidine-2-carboxamide]	< 50	

Further lines, with some results ahead:

percent degradation of TPM3-TRKA protein at 0.01 µM (TPM3-TRKA fusion protein) [%]	SMILES	other results
50 to 80	O=C1CCC(N2Cc3ccc(C#CC(=O)N4CCN(c5cccc(-c6cnc7ccc(N8CCC[C@@H]8c8cccc(F)c8)nn67)n5)CC4)cc3C2=O)C(=O)N1 (stereo partly drawn) [TR-202, 3-(6-(3-(4-(6-(6-((R)-2-(3-Fluorophenyl)pyrrolidin-1-yl)imidazo[1,2-b]pyridazin-3-yl)pyridin-2-yl)piperazin-1-yl)-3-oxoprop-1-yn-1-yl)-1-oxoisoindolin-2-yl)piperidine-2,6-dione]	
50 to 80	Cc1ncsc1-c1ccc(CNC(=O)[C@@H]2C[C@@H](O)CN2C(=O)[C@@H](NC(=O)CCCCCCCCCC(=O)N2CCN(c3cccc(-c4cnc5ccc(N6CCC[C@@H]6c6cccc(F)c6)nn45)n3)CC2)C(C)(C)C)cc1 [CPD-022, (25,4R)-1-((S)-2-(11-(4-(6-(6-((R)-2-(3-Fluorophenyl)pyrrolidin-1-yl)imidazo[1,2-b]pyridazin-3-yl)pyridin-2-yl)piperazin-1-yl)-11-oxoundecanamido)-3,3-dimethylbutanoyl)-4-hydroxy-N-(4-(4-methylthiazol-5-yl)benzyl)pyrrolidine-2-carboxamide]	
> 80	O=C1CCC(N2C(=O)c3cccc(NCCOCCOCCC(=O)N4CCN(c5cccc(-c6cnc7ccc(N8CCC[C@@H]8c8cccc(F)c8)nn67)n5)CC4)c3C2=O)C(=O)N1 (stereo partly drawn) [CPD-028, 2-(2,6-Dioxopiperidin-3-yl)-4-((2-(2-(3-(4-(6-(6-((R)-2-(3-fluorophenyl)pyrrolidin-1-yl)imidazo[1,2-b]pyridazin-3-yl)pyridin-2-yl)piperazin-1-yl)-3-oxopropoxy)ethoxy)ethyl)amino) isoindoline-1,3-dione]	
> 80	O=C(CN1CCN(c2cccc(-c3cnc4ccc(N5CCC[C@@H]5c5cccc(F)c5)nn34)n2)CC1)NCCOCCOCCOCCNc1ccc2c(c1)C(=O)N(C1CCC(=O)NC1=O)C2=O (stereo partly drawn) [TR-129, N-(2-(2-(2-(2-((2-(2,6-dioxopiperidin-3-yl)-1,3-dioxoisoindolin-5-yl)amino)ethoxy)ethoxy)ethoxy)ethyl)-2-(4-(6-(6-((R)-2-(3-fluorophenyl)pyrrolidin-1-yl)imidazo[1,2-b]pyridazin-3-yl)pyridin-2-yl)piperazin-1-yl)acetamide]	
> 80	O=C1CCC(N2C(=O)c3cccc(NCC(=O)N4CCN(c5ccc(C(=O)Nc6n[nH]c7ccc(Cc8cc(F)cc(F)c8)cc67)c(NC6CCOCC6)c5)CC4)c3C2=O)C(=O)N1 (stereo not shown) [CPD-055, N-(5-(3,5-Difluorobenzyl)-1HI-indazol-3-yl)-4-(4-((2-(2,6-dioxopiperidin-3-yl)-1,3-dioxoisoindolin-4-yl)glycyl)piperazin-1-yl)-2-((tetrahydro-2H-pyran-4-yl)amino)benzamide]	
50 to 80	O=C1CCC(N2Cc3cc(C#CC(=O)N4CCN(c5cccc(-c6cnc7ccc(N8CCC[C@@H]8c8cccc(F)c8)nn67)n5)CC4)ccc3C2=O)C(=O)N1 (stereo partly drawn) [TR-203, 3-(5-(3-(4-(6-(6-((R)-2-(3-fluorophenyl)pyrrolidin-1-yl)imidazo[1,2-b]pyridazin-3-yl)pyridin-2-yl)piperazin-1-yl)-3-oxoprop-1-yn-1-yl)-1-oxoisoindolin-2-yl)piperidine-2,6-dione]	
